Legend:
Assay type in all cases: in vivo
[1] = test system: Diabrotica balteata (Corn Root Worm); assay: Activity against Diabrotica balteata (corn root worm), corn seedlings on filter paper in cups; conditions: 120 h, application rate 3 ppm, L2 larva, 5 days after treatment, read-out: effect in at least one of the two categories (mortality or growth inhibition)
Protocol: Example B12: Activity Against Diabrotica Balteata (Corn Root Worm)
Three corn seedlings were placed on wetted filter paper in plastic cups, and 3 ml of diluted test solutions were pipetted onto them. The cups were infested with 10 L2 larva and checked for mortality and growth regulation 5 days after treatment.

[2] = test system: Diabrotica balteata (Corn Root Worm); assay: Activity against Diabrotica balteata (corn root worm), sprayed maize sprouts on agar; conditions: 96 h, application rate 200 ppm, L2 larvae, 4 days after infestation, read-out: effect in at least one of the two categories (mortality or growth inhibition)
Protocol: Example B2: Activity Against Diabrotica balteata (Corn Root Worm)
Maize sprouts placed onto an agar layer in 24-well microtiter plates were treated with aqueous test solutions prepared from 10,000 ppm DMSO stock solutions by spraying. After drying, the plates were infested with L2 larvae (6 to 10 per well). The samples were assessed for mortality and growth inhibition in comparison to untreated samples 4 days after infestation.

[3] = test system: Spodoptera littoralis (Egyptian Cotton Leaf Worm); assay: Activity against Spodoptera littoralis (Egyptian cotton leaf worm), sprayed cotton leaf discs; conditions: foliar, 72 h, application rate 200 ppm, L1 larvae, 3 days after infestation
Protocol: Example B7: Activity Against Spodoptera littoralis (Egyptian Cotton Leaf Worm)
Cotton leaf discs were placed onto agar in 24-well microtiter plates and sprayed with aqueous test solutions prepared from 10,000 ppm DMSO stock solutions. After drying the leaf discs were infested with five L1 larvae. The samples were assessed for mortality, anti-feeding effect, and growth inhibition in comparison to untreated samples 3 days after infestation. Control of Spodoptera littoralis by a test sample is given when at least one of the categories mortality, anti-feedant effect, and growth inhibition is higher than the untreated sample.

[4] = test system: Plutella xylostella (Diamond Back Moth); assay: Activity against Plutella xylostella (diamond back moth), treated artificial diet; conditions: 192 h, application rate 200 ppm, eggs, 8 days after infestation, read-out: effect in at least one of the two categories (mortality or growth inhibition)
Protocol: Example B5: Activity Against Plutella xylostella (Diamond Back Moth)
24-well microtiter plates with artificial diet were treated with aqueous test solutions prepared from 10,000 ppm DMSO stock solutions by pipetting. After drying, Plutella eggs were pipetted through a plastic stencil onto a gel blotting paper and the plate was closed with it. The samples were assessed for mortality and growth inhibition in comparison to untreated samples 8 days after infestation.

[5] = test system: Chilo suppressalis (Striped Rice Stemborer); assay: Activity against Chilo suppressalis (striped rice stemborer), treated artificial diet; conditions: 144 h, application rate 200 ppm, L2 larvae, 6 days after infestation
Protocol: Example B10: Activity Against Chilo suppressalis (Striped Rice Stemborer)
24-well microtiter plates with artificial diet were treated with aqueous test solutions prepared from 10,000 ppm DMSO stock solutions by pipetting. After drying, the plates were infested with L2 larvae (6-8 per well). The samples were assessed for mortality, anti-feeding effect, and growth inhibition in comparison to untreated samples 6 days after infestation. Control of Chilo suppressalis by a test sample is given when at least one of the categories mortality, anti-feedant effect, and growth inhibition is higher than the untreated sample.

[6] = test system: Carpocapsa (Cydia) Pomonella (Codling Moth); assay: Activity against Carpocapsa (Cydia) pomonella (codling moth), sprayed diet cubes; conditions: 336 h, application rate 12.5 ppm, L1 larvae, 14 days after infestation, read-out: effect in at least one of the two categories (mortality or growth inhibition)
Protocol: Example B11: Activity Against Carpocapsa (Cydia) Pomonella (Codling Moth)
Diet cubes coated with paraffin were sprayed with diluted test solutions in an application chamber. After drying off the treated cubes (10 replicates) were infested with 1 L1 larvae. Samples were incubated at 26-27° C. and checked 14 days after infestation for mortality and growth inhibition. The following compounds gave an effect of at least 80% in at least one of the two categories (mortality or growth inhibition) at an application rate of 12.5 ppm: P1, P2, P3, P4, P5, P6, P10, P11, P12, P14, P15, P16, P17, P19, P20, P21, P22, P24, P27, P29, P30, P33, P34, P35.

[7] = test system: Myzus persicae (Green Peach Aphid); assay: Activity against Myzus persicae (green peach aphid), feeding/contact activity; conditions: 144 h, application rate 200 ppm, mixed ages, 6 days after infestation
Protocol: Example B6: Activity Against Myzus persicae (Green Peach Aphid) Feeding/Contact Activity
Sunflower leaf discs were placed onto agar in a 24-well microtiter plate and sprayed with aqueous test solutions prepared from 10,000 ppm DMSO stock solutions. After drying, the leaf discs were infested with an aphid population of mixed ages. The samples were assessed for mortality 6 days after infestation.

CCS(=O)(=O)c1c(N2Cc3ncc(C(F)(F)F)cc3C2=O)nc2ccc(C(C)(F)F)cn12 [Compound P18, 6-[6-(1,1-difluoroethyl)-3-ethylsulfonyl-imidazo [1,2-a]pyridin-2-yl]-3-(trifluoromethyl)-7H-pyrrolo[3,4-b]pyridin-5-one]
≥ 80%: percent effect (mortality or growth inhibition) at 3 ppm [1]

CCS(=O)(=O)c1c(N2Cc3ncc(C(F)(F)F)cc3C2=O)nc2ccc(OCC3(C#N)CC3)cn12 [Compound P31, 1-[[3-ethylsulfonyl-2-[5-oxo-3-(trifluoromethyl)-7H-pyrrolo[3,4-b]pyridin-6-yl]imidazo [1,2-a]pyridin-6-yl]oxymethyl] cyclopropane-carbonitrile]
≥ 80%: percent effect (mortality or growth inhibition) at 200 ppm [2] | percent control (mortality, anti-feedant effect or growth inhibition) at 200 ppm [3] | percent effect (mortality or growth inhibition) at 200 ppm [4] | percent control (mortality, anti-feedant effect or growth inhibition) at 200 ppm [5]

CCS(=O)(=O)c1c(N2Cc3ncc(C(F)(F)F)cc3C2=O)nc2cc(C(F)(F)F)ccn12 [Compound P2, 6-[3-ethylsulfonyl-7-(trifluoromethyl)imidazo[1,2-a]pyridin-2-yl]-3-(trifluoromethyl)-7H-pyrrolo[3,4-b]pyridin-5-one]
≥ 80%: percent effect (mortality or growth inhibition) at 12.5 ppm [6] | percent effect (mortality or growth inhibition) at 200 ppm [2] | mortality at 200 ppm [7] | percent effect (mortality or growth inhibition) at 3 ppm [1] | percent control (mortality, anti-feedant effect or growth inhibition) at 200 ppm [3] | percent effect (mortality or growth inhibition) at 200 ppm [4]

CCS(=O)(=O)c1c(N2Cc3ccc(S(=O)(=O)C(F)(F)F)cc3C2=O)nc2ccc(C(F)(F)F)cn12 [Compound P32, 2-[3-ethylsulfonyl-6-(trifluoromethyl)imidazo[1,2-a]pyridin-2-yl]-6-(trifluoromethyl-sulfonyl) isoindolin-1-one]
≥ 80%: percent effect (mortality or growth inhibition) at 200 ppm [2] | percent effect (mortality or growth inhibition) at 3 ppm [1] | percent control (mortality, anti-feedant effect or growth inhibition) at 200 ppm [3] | percent effect (mortality or growth inhibition) at 200 ppm [4] | percent control (mortality, anti-feedant effect or growth inhibition) at 200 ppm [5]

CCS(=O)(=O)c1c(N2Cc3ncc(C(F)(F)F)cc3C2=O)nc2ccc(OC(C)C)cn12 [Compound P9, 6-(3-ethylsulfonyl-6-isopropoxy-imidazo [1,2-a]pyridin-2-yl)-3-(trifluoromethyl)-7H-pyrrolo[3,4-b] pyridin-5-one]
≥ 80%: percent control (mortality, anti-feedant effect or growth inhibition) at 200 ppm [3]

CCS(=O)(=O)c1c(N2Cc3ccc(S(=O)(=O)C(F)(F)F)cc3C2=O)nc2ccc(Br)cn12 [Compound P30, 2-(6-bromo-3-ethylsulfonyl-imidazo[1,2-a]pyridin-2-yl)-6-(trifluoromethyl-sulfonyl) isoindolin-1-one]
≥ 80%: percent effect (mortality or growth inhibition) at 12.5 ppm [6] | percent effect (mortality or growth inhibition) at 200 ppm [2] | percent effect (mortality or growth inhibition) at 3 ppm [1] | percent control (mortality, anti-feedant effect or growth inhibition) at 200 ppm [3] | percent effect (mortality or growth inhibition) at 200 ppm [4] | percent control (mortality, anti-feedant effect or growth inhibition) at 200 ppm [5]

CCS(=O)(=O)c1c(N2Cc3ccc(OC(F)(F)F)cc3C2=O)nc2cc(OCC(F)(F)F)ccn12 [Compound P28, 2-[3-ethylsulfonyl-7-(2,2,2-trifluoroethoxy)imidazo[1,2-a]pyridin-2-yl]-6-(trifluoromethoxy) isoindolin-1-one]
≥ 80%: percent effect (mortality or growth inhibition) at 3 ppm [1]

From US12696901B2, “Pesticidally active heterocyclic derivatives with sulfur containing substituents” (SYNGENTA CROP PROTECTION AG, priority 2020, dated 2026)
